Reference: PubChem BioAssay (NCI)
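The concentration for 50% growth inhibition is given as GI50. TGI is the concentration that stops growth completely.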

How the values were obtained:
Assay in all cases: NCI anticancer screen, dose series, 384-well format
COLO 205 colon = tested on: COLO 205 colon
UACC-62 melanoma = tested on: UACC-62 melanoma
RPMI-8226 leukemia = tested on: RPMI-8226 leukemia
SW-620 colon = tested on: SW-620 colon
MALME-3M melanoma = tested on: MALME-3M melanoma
NCI-H322M lung = tested on: NCI-H322M lung
KM12 colon = tested on: KM12 colon
SK-MEL-2 melanoma = tested on: SK-MEL-2 melanoma
ACHN renal = tested on: ACHN renal
HOP-62 NSCLC = tested on: HOP-62 NSCLC
SK-OV-3 ovarian = tested on: SK-OV-3 ovarian
BT-549 breast = tested on: BT-549 breast
SF-295 CNS = tested on: SF-295 CNS
HCC-2998 colon = tested on: HCC-2998 colon
LOX IMVI melanoma = tested on: LOX IMVI melanoma
SF-268 CNS = tested on: SF-268 CNS
MDA-MB-231 breast = tested on: MDA-MB-231 breast
MDA-MB-468 breast = tested on: MDA-MB-468 breast
MOLT-4 leukemia = tested on: MOLT-4 leukemia
CCRF-CEM leukemia = tested on: CCRF-CEM leukemia
SF-539 CNS = tested on: SF-539 CNS
SNB-19 CNS = tested on: SNB-19 CNS
K-562 leukemia = tested on: K-562 leukemia
OVCAR-8 ovarian = tested on: OVCAR-8 ovarian
OVCAR-4 ovarian = tested on: OVCAR-4 ovarian
DU-145 prostate = tested on: DU-145 prostate
HL-60(TB) leukemia = tested on: HL-60(TB) leukemia
T-47D breast = tested on: T-47D breast
SK-MEL-28 melanoma = tested on: SK-MEL-28 melanoma
HCT-116 colon = tested on: HCT-116 colon

Structure (SMILES): C[C@H]1CN(C2COC2)CCN1c1ccc(Nc2cc(-c3ccnc(N4CCn5c(cc6c5CC(C)(C)C6)C4=O)c3CO)cn(C)c2=O)nc1
- GI50 (COLO 205 colon): 19.8 µM
- TGI (COLO 205 colon): 39.8 µM
- GI50 (UACC-62 melanoma): 14.6 µM
- TGI (UACC-62 melanoma): > 54.6 µM
- GI50 (RPMI-8226 leukemia): 0.86 µM
- TGI (RPMI-8226 leukemia): 2.55 µM
- GI50 (SW-620 colon): 17.5 µM
- TGI (SW-620 colon): 38.1 µM
- GI50 (MALME-3M melanoma): 34.8 µM
- TGI (MALME-3M melanoma): > 54 µM
- GI50 (NCI-H322M lung): 28.6 µM
- TGI (NCI-H322M lung): > 72.8 µM
- GI50 (KM12 colon): 26.2 µM
- TGI (KM12 colon): > 58.9 µM
- GI50 (SK-MEL-2 melanoma): 4.87 µM
- TGI (SK-MEL-2 melanoma): 24.5 µM
- GI50 (ACHN renal): 19.9 µM
- TGI (ACHN renal): > 54.2 µM
- GI50 (HOP-62 NSCLC): 17.8 µM
- TGI (HOP-62 NSCLC): > 48.1 µM
- GI50 (SK-OV-3 ovarian): 16.3 µM
- TGI (SK-OV-3 ovarian): 35.7 µM
- GI50 (BT-549 breast): 18.9 µM
- TGI (BT-549 breast): 40.9 µM
- GI50 (SF-295 CNS): 35 µM
- TGI (SF-295 CNS): > 60.1 µM
- GI50 (HCC-2998 colon): 3.62 µM
- TGI (HCC-2998 colon): 14.5 µM
- GI50 (LOX IMVI melanoma): 17.7 µM
- TGI (LOX IMVI melanoma): 31.7 µM
- GI50 (SF-268 CNS): 16.8 µM
- TGI (SF-268 CNS): 35.4 µM
- GI50 (MDA-MB-231 breast): 6.46 µM
- TGI (MDA-MB-231 breast): 20.4 µM
- GI50 (MDA-MB-468 breast): 14.5 µM
- TGI (MDA-MB-468 breast): 32.8 µM
- GI50 (MOLT-4 leukemia): 0.731 µM
- TGI (MOLT-4 leukemia): 1.93 µM
- GI50 (CCRF-CEM leukemia): 3.36 µM
- TGI (CCRF-CEM leukemia): 13.4 µM
- GI50 (SF-539 CNS): 25.5 µM
- TGI (SF-539 CNS): > 53.4 µM
- GI50 (SNB-19 CNS): 29.8 µM
- TGI (SNB-19 CNS): > 85.4 µM
- GI50 (K-562 leukemia): 20.6 µM
- TGI (K-562 leukemia): > 53.8 µM
- GI50 (OVCAR-8 ovarian): 20.9 µM
- TGI (OVCAR-8 ovarian): > 60.7 µM
- GI50 (OVCAR-4 ovarian): 13.3 µM
- TGI (OVCAR-4 ovarian): > 51.6 µM
- GI50 (DU-145 prostate): 30.8 µM
- TGI (DU-145 prostate): 97.1 µM
- GI50 (HL-60(TB) leukemia): 12.9 µM
- TGI (HL-60(TB) leukemia): 25.9 µM
- GI50 (T-47D breast): 20.3 µM
- TGI (T-47D breast): > 59.5 µM
- GI50 (SK-MEL-28 melanoma): > 36.9 µM
- TGI (SK-MEL-28 melanoma): > 53 µM
- GI50 (HCT-116 colon): 20.6 µM
